According to US11851391B2, “Antifungal compounds and methods of forming the same” (University of Kentucky Research Foundation, priority 2018, dated 2023):

What was measured:
[1] = target: hERG channel (Homo sapiens, UniProt Q12809); experiment: in vitro; settings: for IC50 at 60 min: human
Source text: The HEK-293 cell line stably expressing the hERG potassium channel (accession number U04270) referred to as hERG-HEK cells were received at passage 11 from Millipore (CYL3006, lot 2, Billerica, MA). [^3H]-Dofetilide (specific activity of 80 Ci/mmol; labeled on the N-methyl group) was obtained from American Radiolabeled Chemicals, St. Louis, MO Other chemicals and solvents were obtained from Sigma-Aldrich (Milwaukee, WI) with exceptions of polyethylenimine (PEI), which was obtained from Fluka/Sigma-Aldrich (St. Louis, MO), and Minimium Essential Medium (MEM) with GlutaMAX™ and phenol red, MEM non-essential amino acids solution (NEAA, 100×), G418 disulfate salt solution, fetal bovine serum (FBS), 0.05% Trypsin-EDTA 1× with phenol red, and Hank's balanced salt solution (HBSS), which were obtained from Life Technologies (Carlsbad, CA).
The hERG-HEK cells were cultured according to the protocol provided by Millipore. Cells were maintained in MEM (with GlutaMAX™ and phenol red) supplemented with 10% FBS, 1% NEAA and 400 μg/mL G418 disulfate salt, and incubated at 37° C. in a humidified atmosphere with 5% CO2. Frozen aliquots of cells were transferred into T-75 cm^2 flasks and allowed to adhere for 4-8 h. The medium was replaced every 2 days. Passages were carried out at least 3 times after thawing at 6-day intervals. Cells were dissociated with trypsin/EDTA and seeded into new 150×25 mm dishes at 2-3×10^6 cells per dish and placed at 30° C., 5% CO2, for 40-48 h prior to membrane preparation. Membrane preparation occurred 6 days after the last passage (passage 20).
Cell membrane preparation was based on previous methods. Cells were rinsed twice with HBSS at 37° C. and collected by scraping the dishes in ˜20 mL of ice-cold 0.32 M sucrose and homogenized on ice with a Teflon pestle using a Maximal Digital homogenizer (Fisher Scientific, Pittsburgh, PA) at ˜280 rpm for 30 sec. Homogenates were centrifuged at 300 g and 800 g for 4 min each at 4° C. Pellets were resuspended in 9 mL of ice-cold Milli-Q H2O and osmolarity restored by addition of 1 mL of 500 mM Tris buffer (pH 7.4) followed by suspension and centrifugation at 20,000 g for 30 min at 4° C. Pellets were homogenized in 2 mL assay buffer (50 mM Tris, 10 mM KCl, and 1 mM MgCl2, 4° C.) and aliquots of cell membrane suspensions were stored at −80° C. and thawed the day of the [^3H]-dofetilide binding assay. Protein content was determined prior to the assay using a Bradford protein assay with bovine albumin as the standard.
[^3H]-Dofetilide binding assays using hERG-HEK293 cell membranes were based on previous methods. Assays determining concentration-response were conducted in duplicate, and three independent assays were performed for each analogue evaluated. Cell membrane suspension (5 μg) was added to duplicate tubes containing assay buffer, 25 μL of a single concentration of N,N-dialkylaminostilbene agent (FIDAS agent) (concentration range of 10 nM-100 μM for each experiment), and 25 μL of [^3H]-dofetilide (5 nM, final concentration) for an assay volume of 250 μL. Binding occurred for 60 min at 25° C. and was terminated by rapid filtration through Whatman GF/B filters, which were pre-soaked in 0.25% PEI overnight, using a Brandel cell/membrane harvester (M-48; Brandel Inc., Gaithersburg, MD). […] Radioactivity was determined by liquid scintillation spectrometry using the Tri-Carb 2100-TR Liquid Scintillation Analyzer (Perkin-Elmer Life and Analytical Sciences).

[2] = tested on: C. albicans ATCC 64124 (strain B) biofilms; experiment: Biofilm disruption assay (XTT reduction); format: cell-based, Candida albicans
Procedure: (§1) Biofilms are complex communities of one or more species of microorganisms encased in extracellular polymeric substances and attached to not only a solid surface but also to each other. Because of their complex, matrix-like nature, antifungal agents are often unable to reach the pathogens embedded in these networks. […] This increase reflected some resistance of Candida biofilms against the bishydrazone 17c.
(§2) Biofilm disruption assays were performed to assess the effectiveness of compound 17c against sessile yeast cells for two representative yeast strains, C. albicans ATCC 10231 (strain A) and C. albicans ATCC 64124 (strain B). VOR was used as a positive control. Biofilm assays were performed in 96-well plates using XTT [2,3-bis(2-methoxy-4-nitro-5-sulfophenyl)-2H-tetrazolium-5-carboxanilide] to measure the viability of the biofilm as previously described. An overnight culture of the yeast cells was grown at 35° C. in YPD medium with shaking at 200 rpm. The overnight culture was diluted in RPMI 1640 medium to an OD600 between 0.12 and 0.15 to make a working stock. The working stock was transferred to 96-well plates in 100 μL aliquots, leaving one column empty for the sterile controls. […] 80 μL of liquid from each well was transferred to new plates, which were then read for absorbance at 450 nm with a SpectraMax M5 plate reader (Molecular Devices, Sunnyvale, CA, USA). […]

[3] = tested on: C. albicans ATCC 10231 (strain A) biofilms; experiment: Biofilm disruption assay (XTT reduction); format: cell-based, Candida albicans
Procedure: as §1, §2

Sequence of hERG channel (Q12809 whole entry): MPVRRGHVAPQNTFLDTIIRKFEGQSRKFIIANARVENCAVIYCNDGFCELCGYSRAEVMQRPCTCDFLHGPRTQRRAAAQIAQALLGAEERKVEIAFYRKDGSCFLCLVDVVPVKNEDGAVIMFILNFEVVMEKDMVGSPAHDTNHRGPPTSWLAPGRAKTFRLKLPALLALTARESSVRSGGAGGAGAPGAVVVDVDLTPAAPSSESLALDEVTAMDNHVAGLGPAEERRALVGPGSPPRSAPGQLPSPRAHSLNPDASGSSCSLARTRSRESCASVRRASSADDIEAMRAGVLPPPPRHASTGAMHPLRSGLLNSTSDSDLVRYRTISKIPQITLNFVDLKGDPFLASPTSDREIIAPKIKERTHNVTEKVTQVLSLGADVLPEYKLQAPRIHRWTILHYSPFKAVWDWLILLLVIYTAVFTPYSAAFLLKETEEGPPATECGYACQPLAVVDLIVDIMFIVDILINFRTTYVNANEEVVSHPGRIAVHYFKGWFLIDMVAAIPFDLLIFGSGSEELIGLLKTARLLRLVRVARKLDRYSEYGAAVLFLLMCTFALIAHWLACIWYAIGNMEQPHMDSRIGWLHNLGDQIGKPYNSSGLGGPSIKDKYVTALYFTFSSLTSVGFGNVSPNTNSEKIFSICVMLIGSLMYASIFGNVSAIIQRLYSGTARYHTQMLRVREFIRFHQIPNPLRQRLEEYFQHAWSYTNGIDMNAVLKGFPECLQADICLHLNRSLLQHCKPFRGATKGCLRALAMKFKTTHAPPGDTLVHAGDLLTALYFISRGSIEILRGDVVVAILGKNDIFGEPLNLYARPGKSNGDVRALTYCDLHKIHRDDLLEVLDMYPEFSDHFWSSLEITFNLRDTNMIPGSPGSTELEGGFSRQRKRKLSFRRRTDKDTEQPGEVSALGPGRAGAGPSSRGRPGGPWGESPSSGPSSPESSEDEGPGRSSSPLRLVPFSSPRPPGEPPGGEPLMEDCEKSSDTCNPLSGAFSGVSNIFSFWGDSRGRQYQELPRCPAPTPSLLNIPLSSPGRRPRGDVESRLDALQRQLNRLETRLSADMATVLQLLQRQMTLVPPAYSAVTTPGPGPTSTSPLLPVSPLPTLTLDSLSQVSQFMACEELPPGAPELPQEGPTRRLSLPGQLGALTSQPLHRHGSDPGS

increase of SMIC values compared to planktonic MIC value [2]	increase of SMIC values compared to planktonic MIC value [3]	Compound	IC50 at 60 min [1] [µM]	hERG inhibition (in words) [1]
		COc1ccc(N/N=C/c2ccc(-c3ccc(/C=N/Nc4ccc(OC)cc4)cc3)cc2)cc1 [Compound 15b]	> 30	
		COc1ccc(N/N=C/c2ccc(-c3cccc(/C=N/Nc4ccc(OC)cc4)c3)cc2)cc1 [Compound 15a]	> 30	
		Fc1ccc(N/N=C/c2ccc(-c3cccc(/C=N/Nc4ccc(F)cc4)c3)cc2)cc1 [Compound 17a]	> 30	
4- to 8 fold	4- to 16 fold	C/C(=N\Nc1ccc(F)cc1)c1ccc(-c2ccc(/C(C)=N/Nc3ccc(F)cc3)cc2)cc1 [Compound 17c, 4,4′-bis((E)-1-(2-(4-fluorophenyl)hydrazono)ethyl)-1,1′-biphenyl]	> 30	no hERG inhibition
